Measurements from patent publication US20110152269A1, “PROCESS FOR TREATING ANIMAL HABITATS” (H&S Chemical Company, Inc., priority 2001, published 2011).

Legend:
[1] = Ammonia concentration in treated poultry houses during grow out; conditions: houses and bedding sprayed with 200 ppm aqueous solution before placement of birds; two houses of 26,000 birds; wood chip bedding; 57 day grow out
Procedure: Two poultry houses containing 26,000 birds each were treated, by spraying the houses and bedding contained therein, with an aqueous solution of a product sold under the trademark PLT, at a concentration of 200 ppm. Treatment was effected prior to placement of the birds in the poultry houses. The bedding utilized was popular wood chips. After 57 days the grow out was complete. During the grow out periods the concentration of ammonia in the poultry houses varied between 30 and 70 ppm. […] Two poultry houses containing 26,000 birds each were treated by spraying the houses and bedding contained therein with an aqueous solution of TCM, at a concentration of 200 ppm. Treatment was effected prior to placement of the birds in the poultry houses. The bedding utilized was popular wood chips. After 57 days the grow out was complete. During the grow out the concentration of ammonia in the poultry houses never exceeded 20 ppm.

[2] = test system: salmonella; assay: Monitoring for salmonella in treated poultry houses during grow out; conditions: houses and bedding sprayed with 200 ppm aqueous solution before placement of birds; two houses of 25,000 birds; wood chip bedding; 56 day grow out
Procedure: Two poultry houses containing 25,000 birds each were treated by spraying the houses and bedding contained therein with an aqueous solution of TCM, at a concentration of 200 ppm. Treatment was effected prior to placement of the birds in the poultry house. The bedding utilized was popular wood chips. After 56 days the grow out was complete. During the grow out the presence of salmonella was monitored.
An untreated poultry house containing 25,000 birds was monitored during a 56 day grow out for the presence of salmonella. The bedding utilized was popular wood chips. After 56 days the grow out was complete. During the grow out the poultry house tested positive for salmonella.

## trichloromelamine [TCM]
[1]
  concentration of ammonia in the poultry houses: ≤ 20 ppm
[2]
  presence of salmonella during the grow out: no salmonella was detected
